# Reference: patent publication US20140112886A1, “DINUCLEOTIDE COMPOUNDS FOR HCV INFECTION” (IDENIX PHARMACEUTICALS, INC., priority 2012, published 2014)
# Legend:
# in vitro = conditions: human
# HCV genotype 1b replicon = assay: microbe, parasite or virus in culture; format: cell-based; conditions: Hepatitis C virus, 72 h, read-out: HCV Replicon EC50
# [1] = Cytotoxicity evaluation, CellTiter-Blue Cell Viability Assay; conditions: human, Zluc cells (HCV replicon cells)
Structure (SMILES),CC50 (in vitro) [µM],EC50 (HCV genotype 1b replicon) [µM],CC50 at 72 h [1] [µM]
CCOc1nc(N)nc2c1ncn2[C@@H]1OC(COP2(=O)OCC3(CO2)COP(=O)(OCC2O[C@@H](n4cnc5c(OCC)nc(N)nc54)[C@](C)(F)[C@@H]2O)OC3)[C@@H](O)[C@@]1(C)F (stereo partly shown) [Compound 7],> 50,> 10,
COc1nc(N)nc2c1ncn2[C@@H]1O[C@H](COP(=O)(NCCNP(=O)(OC[C@H]2O[C@@H](n3cnc4c(OC)nc(N)nc43)[C@](C)(O)[C@@H]2O)Oc2ccccc2)Oc2ccccc2)[C@@H](O)[C@@]1(C)O (stereo partly shown) [Compound 6],> 50,> 10,
CCOc1nc(N)nc2c1ncn2[C@@H]1O[C@@H]2COP(=O)(Oc3cccc(OP4(=O)OC[C@H]5O[C@@H](n6ccc(=O)[nH]c6=O)[C@](C)(F)[C@@H]5O4)c3)O[C@H]2[C@@]1(C)F (stereo partly shown) [Compound 8],> 50,< 0.25,
CCOc1nc(N)nc2c1ncn2[C@@H]1O[C@@H]2COP(=O)(NCCNP3(=O)OC[C@H]4O[C@@H](n5cnc6c(OCC)nc(N)nc65)[C@](C)(F)[C@@H]4O3)O[C@H]2[C@@]1(C)F (mixture of isomers) [Compound 3],,1 to 10,> 50
CCOc1nc(N)nc2c1ncn2[C@@H]1O[C@@H]2COP(=O)(Oc3cccc(OP4(=O)OC[C@H]5O[C@@H](n6cnc7c(OCC)nc(N)nc76)[C@](C)(F)[C@@H]5O4)c3)O[C@H]2[C@@]1(C)O (stereo partly shown) [Compound 9],> 50,< 0.25,
CCOc1nc(N)nc2c1ncn2[C@@H]1O[C@H](COP(=O)(NCCNP(=O)(OC[C@H]2O[C@@H](n3cnc4c(OC)nc(N)nc43)[C@](C)(O)[C@@H]2O)Oc2ccccc2)Oc2ccccc2)[C@@H](O)[C@@]1(C)F (stereo partly shown) [Compound 5],> 50,> 10,
CCOc1nc(N)nc2c1ncn2[C@@H]1O[C@@H]2COP(=O)(Oc3cccc(OP4(=O)OC[C@H]5O[C@@H](n6cnc7c(OCC)nc(N)nc76)[C@](C)(O)[C@@H]5O4)c3)O[C@H]2[C@@]1(C)O (stereo partly shown) [Compound 12],> 50,0.25 to 1,
CCOc1nc(N)nc2c1ncn2[C@@H]1O[C@@H]2COP(=O)(OC3CCC(OP4(=O)OC[C@H]5O[C@@H](n6cnc7c(OCC)nc(N)nc76)[C@](C)(F)[C@@H]5O4)CC3)O[C@H]2[C@@]1(C)F (stereo partly shown) [Compound 13],> 50,1 to 10,
CCOc1nc(N)nc2c1ncn2[C@@H]1O[C@@H]2COP(=O)(Oc3cccc(OP4(=O)OC[C@H]5O[C@@H](n6ccc(OC)nc6=O)[C@](C)(F)[C@@H]5O4)c3)O[C@H]2[C@@]1(C)F (stereo partly shown) [Compound 10],> 50,< 0.25,
CCOc1nc(N)nc2c1ncn2[C@@H]1O[C@H](COP(=O)(Oc2ccccc2)N2CCN(P(=O)(OC[C@H]3O[C@@H](n4cnc5c(OC)nc(N)nc54)[C@](C)(O)[C@@H]3O)Oc3ccccc3)CC2)[C@@H](O)[C@@]1(C)F (stereo partly shown) [Compound 4],> 50,> 10,
CCOc1nc(N)nc2c1ncn2[C@@H]1O[C@@H]2COP(=O)(NCCCCCCNP3(=O)OC[C@H]4O[C@@H](n5cnc6c(OCC)nc(N)nc65)[C@](C)(F)[C@@H]4O3)O[C@H]2[C@@]1(C)F (stereo partly shown) [Compound 14],,1 to 10,> 50
